ChEMBL document CHEMBL4138123, “Design, synthesis and biological evaluation of novel pyrazolochalcones as potential modulators of PI3K/Akt/mTOR pathway and inducers of apoptosis in breast cancer cells” (Eur J Med Chem, 2017)
Active and inactive are the calls of the source. The rule behind the calls is not given here.

Key:
[1] = test system: MCF7; experiment: Induction of intrinsic apoptosis in human MCF7 cells assessed as effect on mitochondrial membrane depolarization at 2 uM after 5 hrs by DiOC6 staining-based FACS analysis relative to control; format: functional
[2] = test system: MCF7; experiment: Induction of intrinsic apoptosis in human MCF7 cells assessed as effect on mitochondrial membrane depolarization by measuring mean fluorescence intensity at 2 uM after 18 hrs by DiOC6 staining-based FACS analysis (reference value: 463); format: functional
[3] = test system: MCF7; experiment: Cell cycle arrest in human MCF7 cells assessed as accumulation at G0/G1 phase at 2 uM after 24 hrs by flow cytometric analysis (reference value: 18.4%); format: functional
[4] = test system: MCF7; experiment: Cell cycle arrest in human MCF7 cells assessed as accumulation at G2/M phase at 2 uM after 24 hrs by flow cytometric analysis (reference value: 2.35%); format: functional
[5] = test system: MCF7; experiment: Cell cycle arrest in human MCF7 cells assessed as accumulation at S phase at 2 uM after 24 hrs by flow cytometric analysis (reference value: 79.1%); format: functional
[6] = test system: MCF7; experiment: Cell cycle arrest in human MCF7 cells assessed as accumulation at G0/G1 phase at 2 uM after 48 hrs by flow cytometric analysis (reference value: 34.2%); format: functional
[7] = test system: MCF7; experiment: Cell cycle arrest in human MCF7 cells assessed as accumulation at S phase at 2 uM after 48 hrs by flow cytometric analysis (reference value: 57.7%); format: functional
[8] = test system: MCF7; experiment: Cell cycle arrest in human MCF7 cells assessed as accumulation at G2/M phase at 2 uM after 48 hrs by flow cytometric analysis (reference value: 8.1%); format: functional
[9] = test system: MCF7; experiment: Induction of apoptosis in human MCF7 cells assessed as late apoptotic cells at 2 uM after 24 hrs by Annexin-V FITC/propidium iodide staining-based FACS analysis (reference value: 5.4%); format: functional
[10] = test system: MCF7; experiment: Induction of apoptosis in human MCF7 cells assessed as early apoptotic cells at 2 uM after 24 hrs by Annexin-V FITC/propidium iodide staining-based FACS analysis (reference value: 0.5%); format: functional
[11] = test system: MCF7; experiment: Induction of apoptosis in human MCF7 cells assessed as viable cells at 2 uM after 24 hrs by Annexin-V FITC/propidium iodide staining-based FACS analysis (reference value: 93.9%); format: functional; settings: MCF7, 24 h, read-out: Activity
[12] = test system: MCF7; experiment: Induction of apoptosis in human MCF7 cells assessed as necrotic cells at 2 uM after 24 hrs by Annexin-V FITC/propidium iodide staining-based FACS analysis (reference value: 0.2%); format: functional
[13] = test system: MCF7; experiment: Downregulation of PI3K protein expression in human MCF7 cells at 2 uM after 24 hrs by Western blot analysis; format: functional, cell-based
[14] = test system: MCF7; experiment: Inhibition of PI3K in human MCF7 cells assessed as downregulation of phosphorylated Akt levels at 2 uM after 24 hrs by Western blot analysis; format: cell-based
[15] = test system: MCF7; experiment: Downregulation of mTOR protein expression in human MCF7 cells at 2 uM after 24 hrs by Western blot analysis; format: functional, cell-based
[16] = test system: MCF7; experiment: Upregulation of PTEN protein expression in human MCF7 cells at 2 uM after 24 hrs by Western blot analysis; format: functional, cell-based
[17] = test system: MCF7; experiment: Downregulation of Bcl-2 mRNA expression in human MCF7 cells at 2 uM after 48 hrs by qRT-PCR analysis; format: functional, cell-based
[18] = test system: MCF7; experiment: Upregulation of TP53 mRNA expression in human MCF7 cells at 2 uM after 48 hrs by qRT-PCR analysis; format: functional, cell-based

COc1cc(C(=O)/C=C/c2cc(-c3ccc4c(c3)OCO4)n[nH]2)cc(OC)c1OC
Activity [1]: 3.4% | Flu intensity [2]: 313 | Activity [3]: 35.4% | Activity [4]: 64.6% | Activity [5]: 0% | Activity [6]: 39% | Activity [7]: 59.1% | Activity [8]: 1.98% | Activity [9]: 8.4% | Activity [10]: 0.7% | viability at 2 µM [11]: 89.2% | Activity [12]: 0.1% | Activity [13]: Active | phospho-Akt downregulation (active/inactive) [14]: Active | Activity [15]: Active | Activity [16]: Active | Activity [17]: Active | Activity [18]: Active

COc1ccc(C(=O)/C=C/c2cc(-c3cc(OC)c(OC)c(OC)c3)n[nH]2)cc1OC
Flu intensity [2]: 294 | Activity [3]: 30.8% | Activity [4]: 39.9% | Activity [5]: 29.3% | Activity [6]: 43.9% | Activity [7]: 43% | Activity [8]: 13.1% | Activity [9]: 4.2% | Activity [10]: 1.4% | viability at 2 µM [11]: 94.3% | Activity [12]: 0.1% | Activity [13]: Active | phospho-Akt downregulation (active/inactive) [14]: Active | Activity [15]: Active | Activity [16]: Active | Activity [17]: Active | Activity [18]: Active

COc1ccc(C(=O)/C=C/c2cc(-c3cc(OC)c(OC)c(OC)c3)n[nH]2)cc1
Activity [13]: Active | phospho-Akt downregulation (active/inactive) [14]: Active | Activity [15]: Active | Activity [16]: Active | Activity [17]: Active | Activity [18]: Active

COc1cc(C(=O)/C=C/c2cc(-c3cc(OC)c(OC)c(OC)c3)n[nH]2)cc(OC)c1OC
Flu intensity [2]: 637 | Activity [3]: 16.6% | Activity [4]: 10.3% | Activity [5]: 73.1% | Activity [6]: 62% | Activity [7]: 33% | Activity [8]: 4.96% | Activity [9]: 11.2% | Activity [10]: 3.1% | viability at 2 µM [11]: 84.6% | Activity [12]: 1.1% | Activity [13]: Active | phospho-Akt downregulation (active/inactive) [14]: Active | Activity [15]: Active | Activity [16]: Active | Activity [17]: Active | Activity [18]: Active

COc1ccc(-c2cc(/C=C/C(=O)c3ccc(OC)c(OC)c3)[nH]n2)cc1
Flu intensity [2]: 355 | Activity [3]: 15.3% | Activity [4]: 18.6% | Activity [5]: 66.1% | Activity [6]: 44.6% | Activity [7]: 38.9% | Activity [8]: 16.5% | Activity [9]: 4.4% | Activity [10]: 1.1% | viability at 2 µM [11]: 93.8% | Activity [12]: 0.7% | Activity [13]: Active | phospho-Akt downregulation (active/inactive) [14]: Active | Activity [15]: Active | Activity [16]: Active | Activity [17]: Active | Activity [18]: Active
